Tests used:
[1] = test system: 30 kinases including the TAM family (Tyro3, AXL and, Mer) of receptor tyrosine kinases; assay: 30 kinase inhibitory assays (selectivity); assay type: biochemical; conditions: Fig 2B
Description: (§1) CH5451098 (N-cyclopropyl-2-[2-[8-[(2R)-2,3-dihydroxypropoxy]-6,6-dimethyl-11-oxo-naphtho[2,3-b]benzofuran-3-yl]ethynyl]pyridine-4-carboxamide), a selective inhibitor of AXL, was synthesized at Chugai Pharmaceutical Co. Ltd. (Fig 1). The following recombinant proteins were used for the kinase assay: AXL, Mer, Tyro3, Flt3, JAK2, EGFR, HER2, KIT, PDGFRβ, FGFR2, KDR, MET, ALK, EPHA2, EPHB2, FAK, SRC, ABL, ERK1, PKA, AKT1, PKACα, PKACβ1, AurA, CHK1, CHK2, MNK1, CDK1, and p38α from Carna Biosciences (Kobe, Japan), and Raf1 from Thermo Fisher Scientific (Waltham, MA). Recombinant mouse TGFβ1 (mTGFβ1) and recombinant mouse Gas6 (mGas6) were purchased from R&D systems. All other chemicals were of the highest purity available. The following primary antibodies were used for this study: anti-beta catenin (8480), anti-zinc finger E-box-binding homeobox 1 (Zeb1) (3396), anti-glyceraldehyde-3-phosphate dehydrogenase (GAPDH) (8884) antibody from Cell Signaling Technology (Danvers, MA). […]
(§2) Protein kinases were purchased from Carna Biosciences or Millipore. The inhibitory activity against each kinase was evaluated as described previously.
(§3) Fig 2 In vitro kinase inhibitory activity of CH5451098. […] Enzyme inhibitory activity was calculated by the formula (1-T/C) x 100 (%), where T represents the measured value of the wells with a compound and C represents that of wells without a compound (n = 2). […]

NEP25 mice = assay: NEP25 mouse model of glomerular nephritis (LMB2-induced); assay type: in vivo
Experimental: NEP25 mice, heterozygous podocyte-specific hCD25 transgenic mice, were bred in Tokai University and kindly provided by Matsusaka et al.. All mice were kept in well-controlled animal housing with free access to water and pellet food. Animal procedures and protocols were in accordance with the Guidelines for the Care and Use of Laboratory Animals at Chugai Pharmaceutical Co. Ltd. and approved by the Institutional Animal Care and Use Committee.
To induce disease, NEP25 mice were injected with 0.8 μg/kg of the immunotoxin LMB2 (provided from National Institutes of Health, USA) via the tail vein, except in the normal control group (n = 4). CH5451098 powder was suspended in a 0.5% carboxymethyl cellulose solution to prepare 1.0 mg/mL. Mice were divided into 2 groups and were orally administered vehicle (disease group, n = 10) or CH5451098 10 mg/kg once daily for 21 days (CH5451098 group, n = 10) from one day before LMB2 injection. The dose of CH5451098 was set high enough to inhibit AXL kinase activity throughout the day. Mice not treated with LMB2 were used as normal control.
Blood and urine samples were collected on day 7, 14, or, 21 after LMB2 injection. Blood samples were collected from the abdominal portion of the vena cava under isoflurane anesthesia and were centrifuged to obtain serum samples. Urine samples were collected for 24 hours using a metabolic cage. The mice were euthanized by exsanguination under isoflurane anesthesia at day 22 after LMB2 injection. Kidney tissues were dissected for pathology (formalin-fixed or methyl carnoy-fixed) and kidney cortex samples were collected and snap frozen in liquid nitrogen.
Serum urea nitrogen (BUN), creatinine (sCre) and urinary albumin (uAlb), N-Acetyl-beta-D Glucosaminidase (NAG), and creatinine were measured using an automatic analyzer (Hitachi 7100 Autoanlayzer, Hitachi Co., Ltd. Tokyo, Japan).
RNA samples were extracted from frozen mouse kidney cortex or NRK-52E cells using an RNaesy Mini kit (QIAGEN, Hilden, Germany). cDNA were synthesized from RNA using a reverse transcription kit (Roche applied science, Penzberg, Germany). Expression levels were measured by a LightCycler 480 (Roche Applied science) using TaqMan probe/primer sets for each gene (Thermo Fisher Scientific). […]

NRK-52E cells = assay: EMT induced by TGFβ1 and Gas6 in NRK-52E cells (mRNA expression); assay type: cell-based, rat; conditions: CH5451098 1 nmol/L; mTGFβ1 2 ng/mL and mGas6 500 ng/mL; 2 hours
Experimental: RNA samples were extracted from frozen mouse kidney cortex or NRK-52E cells using an RNaesy Mini kit (QIAGEN, Hilden, Germany). cDNA were synthesized from RNA using a reverse transcription kit (Roche applied science, Penzberg, Germany). Expression levels were measured by a LightCycler 480 (Roche Applied science) using TaqMan probe/primer sets for each gene (Thermo Fisher Scientific).
NRK-52E cell line derived from rat renal tubular epithelial cells was purchased from ATCC (Manassas, VA) and cultured in Dulbecco’s modified eagle’s medium with high glucose media supplemented with 5% FBS at 37°C under 5% CO 2 and 95% air.
NRK-52E cells were seeded onto a collagen-coated plate and were cultured over-night. After reaching subconfluence, cells were cultured in serum restricted medium (0.5% FBS) for 6 hours. Then the cells were stimulated with recombinant mTGFβ1 (2 ng/mL) and/or recombinant mGas6 (500 ng/mL) followed by treatment with or without CH5451098 (1 nmol/L) for 15 minutes. The cells were lysed with RLT buffer (Qiagen) after 2 hours incubation with stimulants and mRNA was purified using RNeasy mini kit (Qiagen).

AXL = biological target: T1, AXL (Homo sapiens, UniProt P30530); assay: Protein kinase assay, AXL; assay type: biochemical; conditions: recombinant AXL, 1.5 hours treatment, n = 2; read-out: IC50 against AXL kinase activity
T1 construct: purchased Carna Biosciences (Kobe, Japan)
T1 sequence (P30530 26-894): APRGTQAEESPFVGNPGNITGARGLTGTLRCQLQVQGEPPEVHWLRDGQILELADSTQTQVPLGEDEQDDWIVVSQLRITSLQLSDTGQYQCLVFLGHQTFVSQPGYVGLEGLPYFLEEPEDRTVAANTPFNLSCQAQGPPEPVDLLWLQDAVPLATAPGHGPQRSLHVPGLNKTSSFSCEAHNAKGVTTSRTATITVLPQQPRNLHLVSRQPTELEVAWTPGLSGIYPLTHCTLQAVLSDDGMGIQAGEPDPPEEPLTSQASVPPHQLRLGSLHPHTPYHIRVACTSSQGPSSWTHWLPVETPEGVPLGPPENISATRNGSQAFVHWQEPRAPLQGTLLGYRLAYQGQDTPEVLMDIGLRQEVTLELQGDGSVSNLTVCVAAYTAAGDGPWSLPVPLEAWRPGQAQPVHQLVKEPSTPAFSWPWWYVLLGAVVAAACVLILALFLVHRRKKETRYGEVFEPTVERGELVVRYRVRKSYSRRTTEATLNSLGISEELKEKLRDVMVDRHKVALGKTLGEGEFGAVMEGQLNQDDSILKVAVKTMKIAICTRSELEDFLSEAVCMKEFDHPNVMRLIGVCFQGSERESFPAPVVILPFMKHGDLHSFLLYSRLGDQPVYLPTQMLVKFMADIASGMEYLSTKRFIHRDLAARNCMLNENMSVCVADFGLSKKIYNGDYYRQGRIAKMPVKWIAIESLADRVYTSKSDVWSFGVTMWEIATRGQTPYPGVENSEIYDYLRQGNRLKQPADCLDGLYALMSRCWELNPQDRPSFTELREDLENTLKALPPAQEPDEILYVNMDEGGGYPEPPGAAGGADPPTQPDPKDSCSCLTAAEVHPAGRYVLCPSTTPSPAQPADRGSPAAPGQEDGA
Description: as §1, §2, §3

[2] = 10 mg/kg once daily 21 days, kidney cortex, vs disease control
[3] = 10 mg/kg once daily 21 days, vs disease control
[4] = 10 mg/kg orally once daily 21 days, blood 24 hours after final administration, mean ± SE, p<0.01 vs disease control
[5] = kidney cortex, 3 weeks after disease induction, vs disease control

CC1(C)c2cc(OC[C@H](O)CO)ccc2C(=O)c2c1oc1cc(C#Cc3cc(C(=O)NC4CC4)ccn3)ccc21 [CH5451098, N-cyclopropyl-2-[2-[8-[(2R)-2,3-dihydroxypropoxy]-6,6-dimethyl-11-oxo-naphtho[2,3-b]benzofuran-3-yl]ethynyl]pyridine-4-carboxamide]
selectivity against other kinases [1]: strongest inhibitory activity towards AXL among 30 kinases
uAlb excretion (NEP25 mice; 10 mg/kg once daily 21 days, 3 weeks after disease induction, vs disease control): significantly decreased
Renal LCN2 mRNA (NEP25 mice; [2]): significantly decreased
kidney Col1a1 mRNA (NEP25 mice; [2]): significantly reduced
kidney OH-Pro content (NEP25 mice; [2]): suppressed
kidney Pai1 mRNA (NEP25 mice; [2]): significantly inhibited
kidney Snai1 mRNA (NEP25 mice; [2]): did not reduce
kidney TGFβ1 mRNA expression (NEP25 mice; [2]): only a partial reduction
kidney Twist1 mRNA (NEP25 mice; [2]): tended to suppress
kidney Zeb1 mRNA (NEP25 mice; [2]): suppressed
Urinary NAG excretion (NEP25 mice; 10 mg/kg once daily 21 days, urine 0 to 24 hours after final administration, vs disease control): significantly inhibited
abundance of stained connective tissue (Sirius red and Masson's Trichrome staining) (NEP25 mice; [3]): inhibited
destruction of glomerular structure (periodic acid-Schiff stain) (NEP25 mice; [3]): ameliorated
tubulointerstitial fibrosis (semi-quantitative score, Masson's trichrome) (NEP25 mice; [3]): significantly suppressed
BUN (NEP25 mice; [4]): 55 ± 5.0 mg/dL
Serum creatinine (sCre) (NEP25 mice; [4]): 0.15 ± 0.019 mg/dL
uAlb leakage (NEP25 mice; 2 weeks after disease induction, compared to DC group, data not shown): no effect
kidney Zeb1 protein level (western blotting) (NEP25 mice; [5]): reduced
kidney beta-catenin protein level (western blotting) (NEP25 mice; [5]): reduced
LCN2 mRNA induced by Gas6 and TGFβ1 (NRK-52E cells): inhibited
Snai1 mRNA induced by Gas6 along with TGFβ1 (NRK-52E cells): markedly inhibited
Twist1 mRNA induced by Gas6 along with TGFβ1 (NRK-52E cells): markedly inhibited
Zeb1 mRNA induced by Gas6 along with TGFβ1 (NRK-52E cells): markedly inhibited
enhancement of Pai1 mRNA (NRK-52E cells): suppressed
enhancement of TGFβ1 mRNA (NRK-52E cells): suppressed
IC50 (AXL): 3.8 nM

— article PMC7179907, “Novel AXL-specific inhibitor ameliorates kidney dysfunction through the inhibition of epithelial-to-mesenchymal transition of renal tubular cells” (PLoS ONE, 2020)
